Test results: US9580390B2, “Indazole compounds as kinase inhibitors and method of treating cancer with same” (University Health Network, priority 2011, dated 2017)
Read-outs that look alike come from different tables or passages of the source.

Experiments:
Breast cancer cells = assay: Cancer cell line growth inhibition (SRB assay); assay type: cell-based; settings: Homo sapiens; MDA-MB-468; read-out: Cancer Cell Line GI50 Range MDA-MB-468
[1] = tested on: ovarian cancer cells (PA-1); assay: Cancer cell line growth inhibition (SRB assay); assay type: cell-based; settings: read-out: Cancer Cell Line GI50 Range PA-1
Procedure: Breast cancer cells (MDA-MB-231), colon cancer cells (HCT116) and ovarian cancer cells (PA-1) were seeded (1000 to 4000 in 80 μl per well depending on the cell growth rate) into 96 well plates 24 hours before compound overlay. Compounds were prepared as 10 mM stock solutions in 100% DMSO which were diluted with DMEM (Dulbecco's Modified Eagle's Medium) cell growth Medium (Invitrogen, Burlington, ON, Canada) containing 10% FBS (Fetal Bovine Serum) to concentrations ranging from 50 nM to 250 μM. Aliquots (20 μl) from each concentration were overlaid to 80 μl of the pre-seeded cells in the 96 well plates to make final concentrations of 10 nM to 50 μM. The cells were cultured for 5 days before the Sulforhodamine B assay (SRB) was performed to determine the compound's cell growth inhibition activity.
Sulforhodamine B (purchased from Sigma, Oakville, ON, Canada) is a water-soluble dye that binds to the basic amino acids of the cellular proteins. Thus, colorimetric measurement of the bound dye provides an estimate of the total protein mass that is related to the cell number. the cells are fixed in situ by gently aspirating off the culture media and adding 50 μl ice cold 10% Trichloroacetic Acid (TCA) per well and incubate at 4° C. for 30-60 min. The plates are washed with H2O five times and allowed to air dry for 5 min. Addition of 50 μl 0.4% (w/v) SRB solution in 1% (v/v) acetic acid to each well and incubation for 30 min at RT completes the staining reaction. Following staining, plates are washed four times with 1% acetic acid to remove unbound dye and then allowed to air dry for 5 min. The stain is solubilized with 100 μl of 10 mM Tris pH 10.5 per well. Absorbance is read at 570 nm.
The percentage (%) of relative growth inhibition was calculated by comparing to DMSO treated only cells (100%). GI50's were determined for compounds with cytotoxic activity. The GI50 was calculated using GraphPad PRISM software (GraphPad Software, Inc., San Diego, Calif., USA).

[2] = tested on: colon cancer cells (HCT116); assay: Cancer cell line growth inhibition (SRB assay); assay type: cell-based; settings: Homo sapiens, HCT-116, read-out: Cancer Cell Line GI50 Range HCT116
TICs (Ovarian 2393A) = assay: Ovarian tumor-initiating cell growth inhibition (Alamar Blue); assay type: cell-based; settings: 144 h, 6 days, read-out: Tumor Initiating Cell GI50 Range Ovarain 2393A
Source text: Materials and Methods: Non-tissue or tissue cultured treated T-75 flask and 96-well plates were purchased from VWR. Vitamin B-27 supplement, MEM NEAA (minimum essential medium non essential amino acids), sodium pyruvate, L-glutamine, N2 supplement, penicillin-streptomycin and fungizone/amphotericin B were obtained from Invitrogen. Lipid mixture, heparin and EGF were purchased from Sigma; bFGF from BD Biosciences. Tumor Initiating Cells (TICs) from colon were routinely maintained using non-tissue cultured treated T-75 flasks in DMEM:F12 medium containing 0.2×B-27 supplement, 4 ug/ml heparin, 1×MEM NEAA, 1× sodium pyruvate, 1 mM glutamine, 10 pg/ul bFGF, 20 pg/ul EGF, 1×N2 supplement, lipid mixture, penicillin-streptomycin and fungizone/amphotericin B. Ovarian TICs were routinely maintained using tissue cultured treated T-75 flasks in DMEM:F12 medium containing 1×B-27 supplement, 4 ug/ml heparin, 20 pg/ul bFGF, 20 pg/ul EGF and penicillin-streptomycin.
Assay Protocol: Compounds described herein were dissolved in DMSO and further diluted in cell culture medium for GI50 determination. Colon TICs were trypsinized and seeded into non-tissue cultured treated 96-well plates with 4,000 cells/well. After 24 h, compound was added into the cell culture at different concentrations, and the final concentration of DMSO was adjusted to 0.1%. Cells were then cultured at 37° C. for 9 days. Ovarian TICs were trypsinized and seeded into tissue cultured treated 96-well plates with 1,000 cells/well. After 24 h, compound was added into the cell culture at different concentrations, and the final concentration of DMSO was adjusted to 0.1%. Cells were then cultured at 37° C. for 6 days. Cell viability was assessed by Alamar Blue assay: 10 ul of Alamar Blue was added into each well. After 4 hours incubation at 37° C., fluorescence was recorded at excitation 544 and emission 590. GI50 (Growth inhibition) was calculated using GraphPad Prism 4.0 software.

TICs (Colon 12) = assay: Colon tumor-initiating cell growth inhibition (Alamar Blue); assay type: cell-based; settings: 216 h, 9 days, read-out: Tumor Initiating Cell GI50 Range Colon 12
human TTK = target: T1, human TTK (Homo sapiens, UniProt P33981); assay: TTK inhibition assay (indirect ELISA); assay type: biochemical
T1 construct: amino terminal GST fusion of full length human TTK; purchased Invitrogen
T1 sequence (P33981 1-857): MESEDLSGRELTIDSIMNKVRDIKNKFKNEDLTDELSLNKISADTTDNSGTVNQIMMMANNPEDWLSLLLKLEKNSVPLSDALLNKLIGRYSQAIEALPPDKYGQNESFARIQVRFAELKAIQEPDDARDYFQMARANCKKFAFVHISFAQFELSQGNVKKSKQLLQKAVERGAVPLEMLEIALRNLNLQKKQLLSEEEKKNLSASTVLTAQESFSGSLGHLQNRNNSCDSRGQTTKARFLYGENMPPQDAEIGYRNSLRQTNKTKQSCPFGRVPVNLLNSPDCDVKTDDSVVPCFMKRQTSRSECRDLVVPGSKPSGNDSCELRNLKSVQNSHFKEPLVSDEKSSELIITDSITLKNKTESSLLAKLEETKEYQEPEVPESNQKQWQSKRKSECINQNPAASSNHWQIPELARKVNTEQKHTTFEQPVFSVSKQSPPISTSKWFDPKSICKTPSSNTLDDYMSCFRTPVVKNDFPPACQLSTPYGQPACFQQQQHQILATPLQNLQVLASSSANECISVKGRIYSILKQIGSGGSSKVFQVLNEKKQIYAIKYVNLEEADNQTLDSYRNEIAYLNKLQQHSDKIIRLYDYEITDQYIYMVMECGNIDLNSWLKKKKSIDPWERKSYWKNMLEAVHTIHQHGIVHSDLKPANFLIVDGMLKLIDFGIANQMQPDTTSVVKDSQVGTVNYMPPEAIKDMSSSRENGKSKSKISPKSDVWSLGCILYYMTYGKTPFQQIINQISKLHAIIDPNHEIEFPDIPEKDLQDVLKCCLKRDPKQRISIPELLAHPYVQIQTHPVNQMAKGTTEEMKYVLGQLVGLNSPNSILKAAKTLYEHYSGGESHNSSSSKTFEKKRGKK

[3] = PA-1 ovarian cancer cells, SRB assay
[4] = HCT116 colon cancer cells, SRB assay

| SMILES | GI50 (Breast cancer cells) [nM] | GI50 ([1]; Homo sapiens, PA-1) [nM] | GI50 [2] [nM] | GI50 (TICs (Ovarian 2393A); Ovarian 2393A TICs) [nM] | GI50 (TICs (Colon 12); Colon 12 TICs) [nM] | IC50 (human TTK; read-out: TTK IC50 Range) [nM] | IC50 (human TTK) [nM] | GI50 [1, 3] [nM] | GI50 [2, 4] [nM] | GI50 (TICs (Ovarian 2393A); ovarian TICs, Alamar Blue) [nM] | GI50 (TICs (Colon 12); colon TICs, Alamar Blue) [nM] |
| --- | --- | --- | --- | --- | --- | --- | --- | --- | --- | --- | --- |
| CC(C)[C@H](NC(=O)c1ccc2[nH]nc(-c3ccc(OC4CCN(C[C@@H](O)C(F)(F)F)CC4)cc3)c2c1)c1ccccc1Cl [Example A228, N-((S)-1-(2-chlorophenyl)-2-methylpropyl)-3-(4-((1-((R)-3,3,3-trifluoro-2-hydroxypropyl)piperidin-4-yl)oxy)phenyl)-1H-indazole-5-carboxamide] | 100 to 500 | 100 to 500 | 100 to 500 | 100 to 500 | > 500 | < 100 | – | – | – | – | – |
| CN1[C@@H]2CC[C@H]1C[C@@H](Oc1ccc(-c3n[nH]c4ccc(C(=O)NC(c5ccccn5)C5CCCC5)cc34)cc1)C2 (stereo partly drawn) [Example A244, N-(cyclopentyl(pyridin-2-yl)methyl)-3-(4-(((1R,3R,5S)-8-methyl-8-azabicyclo[3.2.1]octan-3-yl)oxy)phenyl)-1H-indazole-5-carboxamide] | 100 to 500 | < 100 | < 100 | 100 to 500 | 100 to 500 | < 100 | – | – | – | – | – |
| CN1CCC(Oc2ccc(-c3n[nH]c4ccc(C(=O)NC(c5ccccn5)C5CC5)cc34)cc2S(C)(=O)=O)CC1 (stereo not drawn) [Example A245, N-(cyclopropyl(pyridin-2-yl)methyl)-3-(4-((1-methylpiperidin-4-yl)oxy)-3-(methylsulfonyl)phenyl)-1H-indazole-5-carboxamide] | > 500 | 100 to 500 | 100 to 500 | > 500 | > 500 | < 100 | – | – | – | – | – |
| O=CN1C2CCC1CC(Oc1ccc(-c3n[nH]c4ccc(C(=O)N[C@H](c5ccccc5Cl)C5CC5)cc34)cc1)C2 (stereo partly drawn) [Example A350, N-((S)-(2-chlorophenyl)(cyclopropyl)methyl)-3-(4-(((1R,3R,5S)-8-formyl-8-azabicyclo[3.2.1]octan-3-yl)oxy)phenyl)-1H-indazole-5-carboxamide] | – | < 100 | < 100 | < 100 | < 100 | < 100 | – | – | – | – | – |
| O=C(N[C@H](c1ccccn1)C1CC1)c1ccc2[nH]nc(-c3ccc(N4C5CCC4CC(O)C5)cc3)c2c1 (stereo partly drawn) [Example A361, N-((S)-cyclopropyl(pyridin-2-yl)methyl)-3-(4-((1R,3S,5S)-3-hydroxy-8-azabicyclo[3.2.1]octan-8-yl)phenyl)-1H-indazole-5-carboxamide] | – | < 100 | < 100 | < 100 | < 100 | – | < 100 | – | – | – | – |
| CC(C)[C@H](NC(=O)c1ccc2[nH]nc(-c3ccc(N4CCCN(C5COC5)CC4)cc3)c2c1)c1ccccc1Cl [Example A369, (S)-N-(1-(2-chlorophenyl)-2-methylpropyl)-3-(4-(4-(oxelan-3-yl)-1,4-diazepan-l-yl)phenyl)-1H-indazole-5-carboxamide] | – | < 100 | < 100 | < 100 | < 100 | < 100 | – | – | – | – | – |
| O=C(N[C@H](c1ccccn1)C1CC1)c1ccc2[nH]nc(-c3ccc(OC4CC5CCC(C4)N5)cc3)c2c1 (stereo partly drawn) [Example A374, 3-(4-((1R,3R,5S)-8-azabicyclo[3.2.1]octan-3-yloxy)phenyl)-N-((S)-cyclopropyl(pyridin-2-yl)methyl)-1H-indazole-5-carboxamide] | – | < 100 | < 100 | 100 to 500 | > 500 | < 100 | – | – | – | – | – |
| C[C@@H](O)C(=O)N1CCC(Oc2ccc(-c3n[nH]c4ccc(C(=O)N[C@H](c5ccccc5)C5CC5)cc34)cc2)CC1 [Example A379, N-((S)-cyclopropyl(phenyl)methyl)-3-(4-((1-((R)-2-hydroxypropanoyl)piperidin-4-yl)oxy)phenyl)-1H-indazole-5-carboxamide] | – | 100 to 500 | 100 to 500 | 100 to 500 | < 100 | < 100 | – | – | – | – | – |
| CN1[C@@H]2CC[C@H]1C[C@@H](Oc1ccc(-c3n[nH]c4ccc(C(=O)NC(c5ncccn5)C5CCCC5)cc34)cc1)C2 (stereo partly drawn) [Example A385, N-(cyclopentyl(pyrimidin-2-yl)methyl)-3-(4-(((1R,3R,5S)-8-methyl-8-azabicyclo[3.2.1]octan-3-yl)oxy)phenyl)-1H-indazole-5-carboxamide] | – | < 100 | < 100 | < 100 | 100 to 500 | < 100 | – | – | – | – | – |
| O=C(NC(c1ccccn1)C1CCCC1)c1ccc2[nH]nc(-c3ccc(N4CCN(C5COC5)CC4)cc3)c2c1 (stereo not drawn) [Example A402, N-(cyclopentyl(pyridin-2-yl)methyl)-3-(4-(4-(oxetan-3-yl)piperazin-1-yl)phenyl)-1H-indazole-5-carboxamide] | – | < 100 | < 100 | < 100 | < 100 | < 100 | – | – | – | – | – |
| O=C(N[C@H](c1ccccn1)C1CCCC1)c1ccc2[nH]nc(-c3ccc(N4[C@@H]5CCC[C@H]4COC5)cc3)c2c1 [Example A418, 3-(4-((1R,5S)-3-oxa-9-azabicyclo[3.3.1]nonan-9-yl)phenyl)-N-((S)-cyclopentyl(pyridin-2-yl)methyl)-1H-indazole-5-carboxamide] | – | < 100 | < 100 | < 100 | < 100 | – | < 100 | – | – | – | – |
| O=C(N[C@@H](c1ccccn1)C1CC1)c1ccc2[nH]nc(-c3ccc(N4[C@@H]5CC[C@H]4COC5)cc3)c2c1 [Example A422, 3-(4-((1R,5S)-3-oxa-8-azabicyclo[3.2.1]octan-8-yl)phenyl)-N-((R)-cyclopropyl(pyridin-2-yl)methyl)-1H-indazole-5-carboxamide] | – | < 100 | < 100 | 100 to 500 | < 100 | < 100 | – | – | – | – | – |
| O=C(NCC1(N2CCOCC2)CCCCC1)c1ccc2[nH]nc(-c3ccc(N4CCOCC4)cc3)c2c1 [Example A447, N-((1-morpholinocyclohexyl)methyl)-3-(4-morpholinophenyl)-1H-indazole-5-carboxamide] | – | – | – | – | – | < 100 | – | < 100 | < 100 | < 100 | < 100 |
| CN1CCN(c2ccc(-c3n[nH]c4ccc(C(=O)NCC5(N6CCOCC6)CCCCC5)cc34)cc2)CC1 [Example A453, 3-(4-(4-methylpiperazin-1-yl)phenyl)-N-((1-morpholinocyclohexyl)methyl)-1H-indazole-5-carboxamide] | – | – | – | – | – | < 100 | – | < 100 | < 100 | 100 to 500 | < 100 |
| CN1CC[C@@H](Oc2ccc(-c3n[nH]c4ccc(C(=O)NCC5(N6CCOCC6)CCCCC5)cc34)cc2)[C@@H](F)C1 [Example A455, 3-(4-(((3S,4R)-3-fluoro-1-methylpiperidin-4-yl)oxy)phenyl)-N-((1-morpholinocyclohexyl)methyl)-1H-indazole-5-carboxamide] | – | – | – | – | – | < 100 | – | < 100 | < 100 | 100 to 500 | 100 to 500 |
| CN1CCC(Oc2ccc(-c3n[nH]c4ccc(C(=O)NCC5(c6cccnc6)CCCCC5)cc34)cc2)CC1 [Example A482, 3-(4-((1-methylpiperidin-4-yl)oxy)phenyl)-N-((1-(pyridin-3-yl)cyclohexyl)methyl)-1H-indazole-5-carboxamide] | – | – | – | – | – | < 100 | – | 100 to 500 | 100 to 500 | > 500 | > 500 |
| O=C(NCC1(N2CCOCC2)CCCCC1)c1ccc2[nH]nc(-c3ccc(N4CCN(C5COC5)CC4)cc3)c2c1 [Example A500, N-((1-morpholinocyclohexyl)methyl)-3-(4-(4-(oxetan-3-yl)piperazin-1-yl)phenyl)-1H-indazole-5-carboxamide] | – | < 100 | < 100 | < 100 | < 100 | < 100 | – | – | – | – | – |
| O=CN1CCC(Oc2ccc(-c3n[nH]c4ccc(C(=O)NCC5(N6CCOCC6)CCCCC5)cc34)cc2)CC1 [Example A504, 3-(4-((1-formylpiperidin-4-yl)oxy)phenyl)-N-((1-morpholinocyclohexyl)methyl)-1H-indazole-5-carboxamide] | – | – | – | – | – | < 100 | – | 100 to 500 | < 100 | 100 to 500 | 100 to 500 |
